# Measured values reported in article PMC7913927, “Leishmanicidal Activity of Betulin Derivatives in Leishmania amazonensis; Effect on Plasma and Mitochondrial Membrane Potential, and Macrophage Nitric Oxide and Superoxide Production” (Microorganisms, 2021).
# Like-named read-outs stand apart in the source and are kept apart here.
# Test system: VE2000MM intracellular amastigotes in J774.1 macrophages
# Assay: Macrophage-amastigote model, patient isolate VE2000MM
# Format: cell-based, Leishmania amazonensis
# Conditions: for Regresion (GraphPad 6) of %Control vs dose (50% inhibitory concentration) / Growth (%) Exp1 %Control / Growth (%) Exp1 A/100MØ / Growth (%) Exp1 A/MØ / Growth (%) Exp1 Infección / Growth (%) Exp2 %Control / Growth (%) Exp2 A/100MØ / Growth (%) Exp2 A/MØ / Growth (%) Exp2 Infección / Growth (%) Exp3 %Control / Growth (%) Exp3 A/100MØ / Growth (%) Exp3 A/MØ / Growth (%) Exp3 Infección / Average A/100MØ: VE2000MM; for Regresion (GraphPad 6) of %Control vs dose (50% inhibitory concentration): unit from Dose head; for Average A/100MØ: average of Exp1-3
# Description: We used a previously described methodology, with some modifications. Macrophage monolayers, grown in RMPIc medium, for 3 days, were detached from the bottom of the culture chamber, by physical treatment (low temperature and light strokes). Obtained macrophages were seeded in flat-bottom 96-well culture plates, at a density of 2 × 10^5 cells mL^−1 (40,000 macrophages/well), in a final volume of 200 µL. Plates were incubated for 2 h, and the supernatant was discarded to remove non-adhered macrophages. Medium was replaced with stationary-phase promastigotes suspended in 200 µL of RPMIc (2 × 10^6 parasites mL^−1, 400,000 parasites/well), at a macrophage: parasite ratio 1:10 [40]. The plates were incubated for 4 h. Afterwards the medium was replaced with fresh RPMIc and increasing concentrations of compounds or drugs tested were applied, in volumes of 2 µL, according to the different treatment groups. Plates were kept for 72 h, at 37 °C and 5% CO2. The medium was discarded and the wells were washed twice with PBS. Next, a Giemsa staining was performed in situ. It consisted of adding 200 µL of methanol/well, incubating for 5 min, discarding the fixative, and letting it dry at room temperature. Later, the Giemsa solution (10% in PBS w/v, 200 µL/well) was added, incubated for 10 min, and washed with PBS, allowing it to dry. Finally, the bottom of the plates was detached by percussion and the circular bottoms (wells) were fixed to slides with Permount synthetic resin, for later evaluation (Alcazar W., manuscript in preparation). Cell counting was performed with a 100× immersion objective. A minimum of 200 random macrophages were examined. The percentage of infected macrophages (% infection) and the average number of amastigotes present in infected macrophages (amastigotes) were determined. […] The infection rate represents the number of intracellular amastigotes per 100 macrophages evaluated. Additionally, the GI50 for the decrease in the infection rate was calculated. At least three independent experiments were performed. The effect of amphotericin-B (AmB) [Sigma-Aldrich, (St. Louis, MO, USA)] was included as positive control of the assay.
structure (smiles),measurement,setting,value
C=C(C)C1CCC2(C=NO)CCC3(C)C(CCC4C5(C)CCC(=NO)C(C)(C)C5CCC43C)C12 (stereo not shown) [Compound 18],SI (CC50/GI50) VE2000MM,"J774.1 CC50 / intracellular amastigote GI50, Table 2",66.79
same,GI50,"VE2000MM intracellular amastigotes, read-out: GI50 (µM) Experiment 1 Regresion",0.87 µM
same,GI50,"VE2000MM intracellular amastigotes, read-out: GI50 (µM) Experiment 2 Regresion",0.43 µM
same,GI50,"VE2000MM intracellular amastigotes, read-out: GI50 (µM) Experiment 3 Regresion",0.62 µM
same,Regresion (GraphPad 6) of %Control vs dose (50% inhibitory concentration),Exp1,0.87 µM
same,Regresion (GraphPad 6) of %Control vs dose (50% inhibitory concentration),Exp2,0.43 µM
same,Regresion (GraphPad 6) of %Control vs dose (50% inhibitory concentration),Exp3,0.62 µM
same,Growth (%) Exp1 %Control,"dose 0.10 µM, Exp1",85.88%
same,Growth (%) Exp1 A/100MØ,"dose 0.10 µM, Exp1",212.29
same,Growth (%) Exp1 A/MØ,"dose 0.10 µM, Exp1",3.35
same,Growth (%) Exp1 Infección,"dose 0.10 µM, Exp1",63.37%
same,Growth (%) Exp2 %Control,"dose 0.10 µM, Exp2",78.62%
same,Growth (%) Exp2 A/100MØ,"dose 0.10 µM, Exp2",190.11
same,Growth (%) Exp2 A/MØ,"dose 0.10 µM, Exp2",3.20
same,Growth (%) Exp2 Infección,"dose 0.10 µM, Exp2",59.41%
same,Growth (%) Exp3 %Control,"dose 0.10 µM, Exp3",72.17%
same,Growth (%) Exp3 A/100MØ,"dose 0.10 µM, Exp3",163.09
same,Growth (%) Exp3 A/MØ,"dose 0.10 µM, Exp3",3.10
same,Growth (%) Exp3 Infección,"dose 0.10 µM, Exp3",52.61%
same,Average A/100MØ,dose 0.10 µM,188.50
same,Growth (%) Exp1 %Control,"dose 0.50 µM, Exp1",66.72%
same,Growth (%) Exp1 A/100MØ,"dose 0.50 µM, Exp1",164.92
same,Growth (%) Exp1 A/MØ,"dose 0.50 µM, Exp1",2.90
same,Growth (%) Exp1 Infección,"dose 0.50 µM, Exp1",56.87%
same,Growth (%) Exp2 %Control,"dose 0.50 µM, Exp2",51.58%
same,Growth (%) Exp2 A/100MØ,"dose 0.50 µM, Exp2",124.74
same,Growth (%) Exp2 A/MØ,"dose 0.50 µM, Exp2",2.98
same,Growth (%) Exp2 Infección,"dose 0.50 µM, Exp2",41.86%
same,Growth (%) Exp3 %Control,"dose 0.50 µM, Exp3",54.73%
same,Growth (%) Exp3 A/100MØ,"dose 0.50 µM, Exp3",123.67
same,Growth (%) Exp3 A/MØ,"dose 0.50 µM, Exp3",3.24
same,Growth (%) Exp3 Infección,"dose 0.50 µM, Exp3",38.17%
same,Average A/100MØ,dose 0.50 µM,137.78
same,Growth (%) Exp1 %Control,"dose 1.00 µM, Exp1",45.38%
same,Growth (%) Exp1 A/100MØ,"dose 1.00 µM, Exp1",112.17
same,Growth (%) Exp1 A/MØ,"dose 1.00 µM, Exp1",2.76
same,Growth (%) Exp1 Infección,"dose 1.00 µM, Exp1",40.64%
same,Growth (%) Exp2 %Control,"dose 1.00 µM, Exp2",23.47%
same,Growth (%) Exp2 A/100MØ,"dose 1.00 µM, Exp2",56.76
same,Growth (%) Exp2 A/MØ,"dose 1.00 µM, Exp2",1.93
same,Growth (%) Exp2 Infección,"dose 1.00 µM, Exp2",29.41%
same,Growth (%) Exp3 %Control,"dose 1.00 µM, Exp3",44.34%
same,Growth (%) Exp3 A/100MØ,"dose 1.00 µM, Exp3",100.21
same,Growth (%) Exp3 A/MØ,"dose 1.00 µM, Exp3",2.85
same,Growth (%) Exp3 Infección,"dose 1.00 µM, Exp3",35.16%
same,Average A/100MØ,dose 1.00 µM,89.71
same,Growth (%) Exp1 %Control,"dose 5.00 µM, Exp1",12.40%
same,Growth (%) Exp1 A/100MØ,"dose 5.00 µM, Exp1",30.64
same,Growth (%) Exp1 A/MØ,"dose 5.00 µM, Exp1",1.33
same,Growth (%) Exp1 Infección,"dose 5.00 µM, Exp1",23.04%
same,Growth (%) Exp2 %Control,"dose 5.00 µM, Exp2",17.91%
same,Growth (%) Exp2 A/100MØ,"dose 5.00 µM, Exp2",43.32
same,Growth (%) Exp2 A/MØ,"dose 5.00 µM, Exp2",2.00
same,Growth (%) Exp2 Infección,"dose 5.00 µM, Exp2",21.66%
same,Growth (%) Exp3 %Control,"dose 5.00 µM, Exp3",26.77%
same,Growth (%) Exp3 A/100MØ,"dose 5.00 µM, Exp3",60.50
same,Growth (%) Exp3 A/MØ,"dose 5.00 µM, Exp3",2.96
same,Growth (%) Exp3 Infección,"dose 5.00 µM, Exp3",20.44%
same,Average A/100MØ,dose 5.00 µM,44.82
same,Growth (%) Exp1 %Control,"dose 10.00 µM, Exp1",11.00%
same,Growth (%) Exp1 A/100MØ,"dose 10.00 µM, Exp1",27.18
same,Growth (%) Exp1 A/MØ,"dose 10.00 µM, Exp1",1.50
same,Growth (%) Exp1 Infección,"dose 10.00 µM, Exp1",18.12%
same,Growth (%) Exp2 %Control,"dose 10.00 µM, Exp2",9.36%
same,Growth (%) Exp2 A/100MØ,"dose 10.00 µM, Exp2",22.64
same,Growth (%) Exp2 A/MØ,"dose 10.00 µM, Exp2",1.78
same,Growth (%) Exp2 Infección,"dose 10.00 µM, Exp2",12.72%
same,Growth (%) Exp3 %Control,"dose 10.00 µM, Exp3",7.87%
same,Growth (%) Exp3 A/100MØ,"dose 10.00 µM, Exp3",17.78
same,Growth (%) Exp3 A/MØ,"dose 10.00 µM, Exp3",1.69
same,Growth (%) Exp3 Infección,"dose 10.00 µM, Exp3",10.52%
same,Average A/100MØ,dose 10.00 µM,22.53
same,GI50,"intracellular amastigotes, Supplementary Materials II, read-out: GI50 (µM) VE2000MM, mean of three experiments",0.64 µM
